melting point: 126 °C
Compound: COc1ccc(C2=NN(Cc3ccc([N+](=O)[O-])cc3)C(=O)CC2)cc1OC [Example 1, 2-(4-Nitrobenzyl)-6-(3,4-dimethoxyphenyl) -2,3,4,5-tetrahydropyridazin-3-one]

Source: patent publication US20020111356A1, “Arylalkylpyridazinones” (MERCK KGAA, priority 1995, published 2002)
